{
  "source": "ChEMBL document CHEMBL1127842",
  "about": "“The desferrithiocin pharmacophore” (1994)",
  "key": {"Rattus norvegicus [1]": {"species_on_record": "Rattus norvegicus", "test": "Efficiency of iron clearance was determined", "format": "functional", "set-up": "concentration or dose not given beside the values"}, "Rattus norvegicus [2]": {"tested_on": "Rattus norvegicus", "test": "Tested for Iron clearance of compound, when administered subcutaneously at a dose 150 umol/kg in bile duct cannulated rat", "format": "functional", "details": "in the assay text read “orally” for “subcutaneously”"}, "Rattus norvegicus [3]": {"species_on_record": "Rattus norvegicus", "test": "Tested for formation constant of the compound", "format": "functional"}, "Rattus norvegicus [4]": {"tested_on": "Rattus norvegicus", "test": "Tested for Iron clearance of compound, when administered orally at a dose 150 umol/kg in bile duct cannulated rat; Inactive"}},
  "note": "Several values for one entry are separate records, joined by “and”; a condition that tells them apart may be missing. Equal values may be shown once. Activity calls are given as the source filed them. The rule behind the calls is not given here.",
  "data": [
    {"smiles": "O=C(O)[C@H]1CSC(c2ncccc2O)=N1", "values": [
      {"measurement": "Efficiency", "setting": "Rattus norvegicus [1]", "result": 2.4, "unit": "%"},
      {"measurement": "Iron clearence", "setting": "Rattus norvegicus [2]", "result": 101, "unit": "µg/kg"},
      {"measurement": "Kf", "setting": "Rattus norvegicus [3]", "result": "4e+29", "unit": "M⁻¹"}
    ]},
    {"smiles": "CC(=O)N(O)CCCCCNC(=O)CCC(=O)N(O)CCCCCNC(=O)CCC(=O)N(O)CCCCCN", "note": "[DEFEROXAMINE]", "values": [
      {"measurement": "Efficiency", "setting": "Rattus norvegicus [1]", "result": "2.8% and 1%"}
    ]},
    {"smiles": "O=C(O)C1CCSC(c2ncccc2O)=N1", "note": "(stereo not drawn)", "values": [
      {"measurement": "Iron clearence", "setting": "Rattus norvegicus [4]", "result": "inactive"}
    ]},
    {"smiles": "O=C(O)[C@@H]1CSC(c2ncccc2O)=N1", "values": [
      {"measurement": "Efficiency", "setting": "Rattus norvegicus [1]", "result": 3.9, "unit": "%"},
      {"measurement": "Iron clearence", "setting": "Rattus norvegicus [2]", "result": 166, "unit": "µg/kg"}
    ]},
    {"smiles": "CN(O)C(=O)[C@H]1CSC(c2ncccc2O)=N1", "values": [
      {"measurement": "Efficiency", "setting": "Rattus norvegicus [1]", "result": 3.1, "unit": "%"}
    ]}
  ]
}
